Data published in patent publication US12178825B2, “Method and compositions for forming a copper-containing complex and uses thereof” (COLD SPRING HARBOR LABORATORY, priority 2017, dated 2024).
“Also recorded” adds a separate entry of the source.

Columns and labels:
MDA-MB-231 cells = assay: MDA-MB-231 orthotopic xenograft; type: in vivo, SCID-beige mice; details: mice with TNBC xenograft, 5 mg/kg intraperitoneally every day
Procedure: MDA-MB-231 cells (2×10^6) were injected orthotopically into mammary fat pads of SCID-beige mice (Tectonic lab) in 15 μl of a 1:1 mixture with DMEM and growth factor-reduced Matrigel (BD Biosciences). The animals were randomly assigned to three groups to receive saline (control), DPM-1001 (5 mg/kg) or DPM-1003 (5 mg/kg) intraperitoneally everyday once the tumors reached about 200 mm^3. Tumor growth was monitored every third day and volume in mm^3 was measured three times weekly by palpation using the formula: volume=width^2×length/2. Once the tumor volume reached above 500 mm^3 in saline treated mice, the study was terminated. Tumors from all mice were removed for biochemical analysis.

TX mice = assay: Tissue and fecal copper levels (ICP-MS, rhodanine staining); type: in vivo, mouse; details: TX mice, ICP-MS
Procedure: C3He-Atp7b^tx-j were obtained from the Jackson laboratory. All animal experiments were performed according to protocols approved by the Institutional Animal Use and Care Committee of Cold Spring Harbor laboratory. Mice were injected intraperitoneally (i.p.) with vehicle, or administered DPM-1001 intraperitoneally or orally at 5 mg/kg once every third day, for over a year. At the end of the study animals were euthanized and tissue samples were removed for biochemical studies.
Tissue samples from wild-type or TX mice treated with saline, DPM-1001 or tetrathiomolybdate was washed three times with PBS containing 1 mM EDTA (to remove nonspecifically bound copper). Then, 215 μl of concentrated nitric acid (BDH Aristar Ultra) was added to each sample and incubated overnight. Samples were boiled at 95° C. for 1 h. and approximately 150 μl of each sample was further diluted in 2 ml 2% nitric acid (made freshly from concentrated nitric acid and Milli-Q water) Samples were analyzed on a Thermo Fisher iCAP Qc ICP mass spectrometer in kinetic energy discrimination (KED) mode against a calibration curve of known copper and phosphorus concentrations, with Ga (20 μg/l, Inorganic Ventures) as an internal standard, Each experiment was carried out twice and each condition was repeated in at least triplicate.
Liver tissues from wild-type and TX mice from untreated and DPM-1001-treated mice were sectioned and stained with H&E or rhodanine. Whole-slide, digitized images of H&E-stained tissue were captured using the Aperio ScanScope XT automated scanning system (Vista, CA). Image J software was used to quantitate rhodanine staining.

[1] = system: triple-negative breast cancer (TNBC) cell lines; assay: MTT cell survival, triple-negative breast cancer cell lines; type: cell-based
Procedure: (§1) The MTT assay was used to evaluate cell survival in the absence and presence of different compounds. The thiazolyl blue tetrazolium bromide (MTT) was dissolved in phosphate buffered saline (PBS) at a concentration of 5 mg/ml, filtered, and stored at 4° C. About 10,000 cells were seeded into a 96-well plate and cultured in growth medium containing serum. After 24 hours, cells were treated with the indicated concentrations of DPM-1001 or DPM-1003 (0-100 uM) for 2 hrs. Following which 20 μl MTT was added into each well. An ELISA plate reader (Biotek, Winooski, Vermont, USA) was used to measure the optical density at 490 nm.

non-TNBC cell lines = assay: MTT cell survival, non-TNBC cell lines; type: cell-based
Procedure: as §1

PTP1B = PTP1B (Homo sapiens, UniProt P18031); assay: PTP1B inhibition (Ki); type: biochemical
[2] = Direct copper-binding assay with radiolabelled copper
Procedure: Direct binding assays were performed using radiolabelled copper (64 Cu^2+). Varying concentration of radiolabeled copper (0-100 nM) was incubated with DPM-1001 (100 nM). Excess copper was removed by running the samples through a desalting column. The amount of metal bound to the compound was quantitated directly by scintillation counting. For assays with the protein, His-tagged PTP1B (100 nM) was incubated with varying concentrations of Cu-DPM-1001 complex for 60 min in assay buffer (50 mM Hepes, 100 mM NaCl, 0.1% BSA pH 6.5) at 25° C. Protein-bound and free compound were separated by incubating the protein-inhibitor mixture with 50 μl of 50% Ni-NTA beads for 10 min at 25° C. The beads were washed with assay buffer containing 150 mM NaCl and 25 mM Imidazole three times, and the inhibitor bound to protein was determined by scintillation counting. The amount of bead-bound protein was estimated by BCA protein quantification.
Direct binding assays were performed using radiolabelled copper (64 Cu^2+). […] The amount of metal bound to the compound was quantitated directly by scintillation counting. […] The inhibitor bound to protein was determined by scintillation counting. The amount of bead-bound protein was estimated by BCA protein quantification. For protein quantitation the bead bound protein was precipitated with TCA (25% final) on ice for 30 minutes. […]

[3] = ESI-MS analysis of complex formation with a series of other metal ions; type: binding; details: panel of metals
Procedure: Eight equivalents of M(NO3)2·xH2O or MSO4·xH2O were reacted with 1 eq. of DPM-1001, DPM-1003 or analog 2 (1 mM in H2O). The reaction solutions were stirred at RT, 40° C. and 80° C. for 2 h. Each sample was diluted 5-fold in 50% methanol, 0.1% formic acid and loaded into a 500 μL syringe. A Thermo Vantage triple quadrupole mass spectrometer (Thermo Scientific), equipped with an HESI spray source was coupled to an Accela HPLC system (Thermo Scientific). Mobile phase A consisted of 0.1% formic acid and mobile phase B consisted of 0.1% formic acid in methanol. Isocratic flow was set to 50% B at 200 μL/min. 200 μl samples were injected into the LC flow line via syringe pump at 10 μL/min and electrosprayed into the Vantage triple quadrupole mass spectrometer. A spray voltage of 4.3 kV was used along with a capillary temperature of 350° C. Each full MS scan was 0.5 s and data were collected with a scan range of 200 m/z to 900 m/z over 1 min.

TNBC cells = assay: Cellular copper levels by ICP-MS; type: cell-based
Procedure: TNBC cells (1×10^6) were plated in a 10-cm culture dish in growth medium. About 24 h after seeding cells, they were untreated or treated with DPM-1001 (2 uM) or DPM-1003 (2 uM) for 2 h. Following which, cells were washed three times with PBS. Then, 215 μl of concentrated nitric acid (BDH Aristar Ultra) was added to each sample and incubated overnight. Samples were boiled at 95° C. for 1 h. and approximately 150 μl of each sample was further diluted in 2 ml 2% nitric acid (made freshly from concentrated nitric acid and Milli-Q water). Samples were analyzed on a Thermo Fisher iCAP Qc ICP mass spectrometer in kinetic energy discrimination (KED) mode against a calibration curve of known copper and phosphorus concentrations, with Ga (20 μg/l, Inorganic Ventures) as an internal standard. Each experiment was carried out twice and each condition was repeated in at least triplicate.

PTP1B, sequence (P18031 whole entry, species assumed): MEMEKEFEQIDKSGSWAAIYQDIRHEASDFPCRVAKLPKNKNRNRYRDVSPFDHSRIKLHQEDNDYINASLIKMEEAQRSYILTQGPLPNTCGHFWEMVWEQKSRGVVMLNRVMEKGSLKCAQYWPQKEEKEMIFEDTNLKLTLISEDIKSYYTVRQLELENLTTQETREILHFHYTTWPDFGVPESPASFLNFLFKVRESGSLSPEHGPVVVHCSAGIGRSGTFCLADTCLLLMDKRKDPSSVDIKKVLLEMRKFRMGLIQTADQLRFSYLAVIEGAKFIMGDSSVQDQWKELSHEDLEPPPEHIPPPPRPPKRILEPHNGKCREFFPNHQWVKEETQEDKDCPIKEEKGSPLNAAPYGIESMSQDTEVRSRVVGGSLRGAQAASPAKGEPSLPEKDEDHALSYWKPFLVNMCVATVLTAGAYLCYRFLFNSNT

COC(=O)CCC(C)C1CCC2C3C(O)CC4CC(NCCCCNCc5cccnc5)CCC4(C)C3CCC12C (centres unmarked) [DPM-1003]
tumor volume / tumor size (MDA-MB-231 cells): without effect; also recorded: not by DPM-1003; also recorded: did not reduce tumor size or inhibit tumor growth | copper levels in liver and brain (TX mice): did not affect levels of copper in liver tissue; also recorded: did not suppress the levels of the metal in liver | survival of triple-negative breast cancer cells [1]: did not affect survival; also recorded: does not inhibit the survival | survival of non-TNBC cell lines, DPM-1001 versus DPM-1003 (non-TNBC cell lines): did not differ from each other | Ki (PTP1B): 2 µM | binding to copper (in words) [2]: does not bind copper with high affinity; also recorded: limited binding; also recorded: does not bind with high affinity to or form a complex with copper | complex formation with other metals [3]: limited binding | cellular copper levels (TNBC cells): does not reduce copper levels
